# What was measured:
# mouse ABHD16A = biological target: T1, mouse ABHD16A (Mus musculus, UniProt Q9Z1Q2); assay: Competitive gel-based ABPP, mouse ABHD16A-transfected HEK293T proteome; type: biochemical; conditions: 30 min, 37° C., then FP-rhodamine 2 μM
# T1 construct: full-length cDNA of human ABHD16A (Open Biosystems Catalog # MHS6278-202758315) or murine ABHD16A (Open Biosystems Catalog # MMM1013-202760516); host or cells: HEK293T, transient, pCMV-SPORT6
# T1 sequence (Q9Z1Q2 1-558): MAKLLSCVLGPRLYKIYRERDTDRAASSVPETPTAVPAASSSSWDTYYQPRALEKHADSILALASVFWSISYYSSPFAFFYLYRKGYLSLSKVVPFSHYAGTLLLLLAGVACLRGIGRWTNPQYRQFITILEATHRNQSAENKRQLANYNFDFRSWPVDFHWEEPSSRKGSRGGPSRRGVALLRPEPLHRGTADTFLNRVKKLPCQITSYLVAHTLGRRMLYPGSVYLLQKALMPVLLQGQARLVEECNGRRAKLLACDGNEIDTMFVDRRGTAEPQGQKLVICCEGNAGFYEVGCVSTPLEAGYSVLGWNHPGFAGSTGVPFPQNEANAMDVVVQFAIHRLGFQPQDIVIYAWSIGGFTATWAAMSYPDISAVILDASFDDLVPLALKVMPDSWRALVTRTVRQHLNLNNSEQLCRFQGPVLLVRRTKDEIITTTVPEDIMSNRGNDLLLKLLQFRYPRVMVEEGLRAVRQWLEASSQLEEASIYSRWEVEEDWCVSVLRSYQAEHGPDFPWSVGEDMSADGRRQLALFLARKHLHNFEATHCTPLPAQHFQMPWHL
# [1] = test system: mouse peritoneal macrophages; assay: LPS-induced cytokine release from peritoneal macrophages; type: cell-based; conditions: pre-treatment 1 μM, 4 h; LPS 5 μg/mL, 7 h
# Protocol: All PS-lipase substrate assays were performed on either 18:0-18:2 PS (Avanti Catalog #840063) or 16:0-18:1 PS (Avanti Catalog #840034). 17:1 FFA (Sigma-Aldrich #H8896) was used an internal standard for substrate assays, as well as lipidomic analysis. 2-AG-d5 (Catalog #362162) and PGE2-d9 (Catalog #10581) were purchased from Cayman Chemicals. COLO205, MCF7, K562 and HEK293T cells were purchased from ATCC. All full-length cDNA constructs coding for serine hydrolases ABHD16A, and ABHD12 were purchased from Open Biosystems (GE Healthcare), and all primers were obtained from Integrated DNA Technologies. All DNA sequencing was performed by Eton Biosciences Inc. All cytokine analysis was done using single analyte ELISA kits purchased from R&D Systems, Mouse TNF-α (Catalog # DY410), Mouse IL-6 (Catalog # DY406), and Mouse IL-1β (Catalog # DY401). All tissue culture media and supplements (RPMI 1640, DMEM, and Trypsin) were purchased from Caisson Labs, and SILAC RPMI was purchased from Thermo Scientific. […]
# Peritoneal macrophages were elicited and harvested from mice according to the standard protocols available from LIPID MAPS (See http://www.lipidmaps.org/protocols/PP0000001400.pdf and http://www.lipidmaps.org/protocols/PP0000001500.pdf). […] Cell counts measured using a Bio-Rad TC10 automated cell counter, and equal numbers of cells (2×10^6) were plated in 10 cm tissue culture dishes. […]
smiles,measurement,setting,value
"CCCCCCCCCCCCCC1OC(=O)/C1=C\CCCCC(N)=O (centres unmarked) [KC01, (Z)-6-(2-oxo-4-tridecyloxetan-3-ylidene)hexanamide]",IC50,mouse ABHD16A,~500 nM
same,LPS-induced cytokine release,[1],significantly blunted

# — patent US20170313669A1, “LACTONE COMPOUNDS AND METHODS OF MAKING AND USING SAME” (THE SCRIPPS RESEARCH INSTITUTE, priority 2015, published 2017)
